Laboratory results from patent US7939554B2, “Protein phosphatase inhibitors” (The Cleveland Clinic Foundation, priority 2006, dated 2011).

Legend:
[1] = target: T1, recombinant SHP-1 (Homo sapiens, UniProt P29350); test: rapid in vitro SHP-1 PTPase assay (DIFMUP fluorescence substrate); type: biochemical; settings: for inhibition of phosphatase activity of recombinant SHP-1: L5 and analogs, 1 μg/well, FIG. 12A
T1 construct: Recombinant protein of SHP-1 PTPase catalytic domain was described
T1 sequence (P29350 244-515 limits assumed): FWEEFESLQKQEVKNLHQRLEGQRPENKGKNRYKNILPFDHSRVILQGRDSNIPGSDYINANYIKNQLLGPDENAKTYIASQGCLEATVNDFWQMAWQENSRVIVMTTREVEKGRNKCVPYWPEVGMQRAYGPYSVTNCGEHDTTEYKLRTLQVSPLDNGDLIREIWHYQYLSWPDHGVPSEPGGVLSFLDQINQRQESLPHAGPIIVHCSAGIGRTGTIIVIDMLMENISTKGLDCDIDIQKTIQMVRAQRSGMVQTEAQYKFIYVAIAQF
Procedure: Recombinant protein of SHP-1 PTPase catalytic domain was described and stored in Tris buffer (25 mM Tris, pH7.5, 1 mM EDTA, 2 μM 2-ME, 25% glycerol) at −80° C. Fluorescence substrate DIFMUP (6,8-difluoro-4 methylumbelliferyl phosphate) was purchased (Molecular Probes). SSG was reported previously (21-23) and stored at 4° C. in darkness prior to use. Human and mouse IFNγ ELISPOT Kit (R & D System), CD4^+ Cell Intracellular IFNγ Detection Kit (BD Bioscience) and CD8^+ Cell Intracellular IFNγ Detection Kit (BD Bioscience) were purchased from commercial sources. Human Jurkat T cell line (26) and murine B16 melanoma cell line (ATCC) were maintained in […] culture medium supplemented with 10% fetal calf serum (FCS). Antibodies against pLck-pY394 (Cell Signaling), pLck-pY505 (Cell Signaling), pZap70 (pY319, BD Biosciences), pSlp76 (pY128, BD Biosciences) and pLat (pY226, BD Biosciences) were purchased from commercial sources.
A rapid SHP-1 PTPase assay was developed for screening the compounds in a commercial library of 34,000 drug-like small chemicals (Chembridge, Mass.). Briefly, compounds of the library (1 μg/well in […]) were placed in 96-well plates (Falcon, 353072) and mixed with recombinant SHP-1 protein (0.1 μg/well) in […] of HEPES buffer (50 mM HEPS, pH 7.5, 150 mM NaCl, 1 mM EDTA, 0.2 mM DTT and 0.1 mg/ml BSA). The plates were incubated at room temperature for 10 minutes prior to the addition of fluorescence substrate DIFMUP (40 μM stock in HEPES buffer, 10 μl/well) to initiate PTPase reaction. Upon completion of PTPase reaction at room temperature for 1 hr in darkness, fluorescence signal of individual wells were recorded using a Vector^2 Multilabel Counter (Vector, CA). They were compared to that of control SHP-1 PTPase reaction (˜10,000 units of fluorescence signal) in the absence of any compound (100%) for calculating relative SHP-1 inhibition induced by the compounds after subtracting the background signal (˜500 units of fluorescence signal) of the substrate.
To evaluate their SHP-1 inhibitory activity, the analogs (1 μg/well in 0.2 μl DMSO) were aliquot individually to 96-well plates (Falcon, 353072) and mixed with recombinant SHP-1 protein (0.1 μg/well) in 90 μl of HEPES buffer (50 mM HEPS, pH 7.5, 150 mM NaCl, 1 mM EDTA, 0.2 mM DTT and 0.1 mg/ml BSA). The plates were incubated at room temperature for 10 minutes prior to the addition of fluorescence substrate DIFMUP (40 μM stock in HEPES buffer, 10 μl/well) to initiate PTPase reaction. Upon completion of PTPase reaction at room temperature for 1 hr in darkness, fluorescence signal of individual wells were recorded using a Vector^2 Multilabel Counter (Vector, CA). […]

[2] = test system: mouse splenocytes; test: induction of IFNγ+ cells in mouse splenocytes in vitro (ELISPOT); type: cell-based; settings: 1 μg/ml; FIG. 11
Procedure: The splenocytes were cultured in RPMI 1640 medium supplemented with 10% FCS in the absence or presence of designated agents for 16 hrs in flat-bottom 96-well plates coated with a monoclonal antibody specific for mouse IFNγ (mouse IFNγ ELISPOT Kit, R & D System). The plates were then processed for in situ detection of IFNγ+ cells by ELISA following the manufacturer's procedure. Scanning and counting of IFNγ+ cells in the plates were accomplished using an automatic ELISPOT reader with Immunospot2 software (Cellular Technology Ltd). Mouse splenocytes were also untreated or treated with agents for 16 hrs in culture dishes and then stained with appropriate isotype control antibodies or FICT-labeled anti-CD3 monoclonal antibody (BD) plus PE-labeled monoclonal antibody (BD) for intracellular IFNγ following established procedures. The stained samples were washed 3 times, re-suspended in 200 μl of 1% para-formaldehyde solution and analyzed (20,000 cells/sample) using a BD FACS Caliburs cytometer and WinList software.
The splenocytes were cultured in RPMI 1640 medium supplemented with 10% FCS in the absence or presence of designated agents for 16 hrs in flat-bottom 96-well plates coated with a monoclonal antibody specific for mouse IFNγ (mouse IFNγ ELISPOT Kit, R & D System). The plates were then processed for in situ detection of IFNγ+ cells by ELISA following the manufacturer's procedure. Scanning and counting of IFNγ+ cells in the plates were accomplished using an automatic ELISPOT reader with Immunospot2 software (Cellular Technology Ltd).

[3] = test system: B16 melanoma cells; test: B16 melanoma cell growth in culture (MTT assay); type: cell-based, mouse; settings: 6 days; FIG. 13C
Procedure: Data represent mean±SD of triplicate samples. […] Tumor volumes were recorded as indicated. C, Athymic nude mice bearing 4-day-established B16 tumors were subjected to differential treatments as in B. Tumor volumes were recorded as indicated.
L5, L6 and L6 analogs (Chembridge), mouse IFNγ ELISPOT Kit (R & D System) and antibody against pLck-pY394 or pERK1/2 (Cell Signaling) were purchased from commercial sources. Human Jurkat T cell line and murine B16 melanoma cell line (ATCC) and other cancer cell lines were maintained in […] culture medium supplemented with 10% fetal calf serum (FCS). The effects of chemical compounds on cancer cell growth in culture were quantified by MTT assays following our established procedures.

[4] = test system: CD3+ and CD3- IFNγ+ splenocytes; test: spleno-IFNγ+ cells in B16 tumor mice (CD3/intracellular IFNγ FACS); type: in vivo, mouse; settings: 1 mg/kg oral, day 22
Procedure: Splenocytes from mice untreated or treated with L5a2 were stained with appropriate isotype control antibodies or FICT-labeled anti-CD3 monoclonal antibody (BD) plus PE-labeled monoclonal antibody (BD) for intracellular IFNγ following established procedures. The stained samples were washed 3 times, re-suspended in 200 μl of 1% para-formaldehyde solution and analyzed (20,000 cells/sample) using a BD FACS Caliburs cytometer and FlowJoe software.
To gain further insights into the mechanism of action in L5a2 in vivo, spleens were harvested from the B16 tumor mice in the control and the L5a2-treated groups (FIG. 13A) on day 22 to assess whether L5a2 induced IFNγ+ cells in the tumor-bearing mice. It was also determined whether the induced-IFNγ+ cells were of CD3+ T lymphocytes, which were activated TH1 critical for anti-tumor immunity. Splenocytes were prepared and co-stained for intracellular IFNγ and the T cell surface marker CD3 for quantification of IFNγ+ T cells by flow cytometry.

[5] = test system: B16 melanoma tumors
Procedure: Tumor volume (n=5) was measured during the study period and calculated using the formula for a prolate spheroid. Student's t test was used for assessing the significance of tumor volume differences among differential treatment groups. Mouse viability (daily) and body weights (weekly) were also recorded during the study period. Major internal organs of the mice were inspected visually upon their termination at the end of the experiment.
To assess anti-tumor activity, C57BL/6J mice (˜8-week old, female, Taconic Farms, Germantown, N.Y.) were inoculated (s. c.) at the flanks with B16 melanoma cells (4×10^4 cells/site). […] Tumor volume (n=5) was measured during the study period and calculated using the formula for a prolate spheroid. Student's t test was used for assessing the significance of tumor volume differences among differential treatment groups. Mouse viability (daily) and body weights (weekly) were also recorded during the study period. Major internal organs of the mice were inspected visually upon their termination at the end of the experiment.

[6] = target: T2, intracellular SHP-1 (Homo sapiens, UniProt P29350); test: tyrosine phosphorylation of SHP-1 substrates in Jurkat cells (SDS-PAGE/Western blotting, densitometry); type: cell-based
T2 construct: endogenous in cells; host or cells: Jurkat
Procedure: (§1) Jurkat cells in culture medium (3×10^6 cells/ml, 1 ml/tube) were treated with agents for designated times at room temperature. After brief centrifuging in a microfuge (4,000 rpm, 2 min), the cell pellet was lysed on ice for 30 min in 1001 of cold lysis buffer (1% NP40, 50 mM Tris, pH 7.4, 150 mM NaCl, 20 mM NaF, 0.2 mM Na3VO4 and 1 mM Na3MO4) containing a cocktail of proteinase inhibitors (Sigma, 1 tablet/10 ml). The lysates were cleared by centrifuging (14,000 rpm, 10 min) in a microfuge at 4° C. to remove insoluble parts, mixed with equal volume of 2×SDS-PAGE sample buffer, boiled for 5 min and analyzed (˜3×10^5 cells/well) by SDS-PAGE/Western blotting. Relative intensities of phosphotyrosine bands were quantified through densitometry analysis.
as §1, with “100 μl” for “1001”, “blotting as described previously (23, 24).” for “blotting.”
as §1, with “100 μl” for “1001”, “blotting as described previously (17, 18).” for “blotting.”

[7] = target: T3, SHP-2 (Homo sapiens, UniProt Q06124); test: SHP-2 inhibition by SSG (applicant's earlier studies); settings: recombinant and intracellular SHP-2
T3 sequence (Q06124 1-593): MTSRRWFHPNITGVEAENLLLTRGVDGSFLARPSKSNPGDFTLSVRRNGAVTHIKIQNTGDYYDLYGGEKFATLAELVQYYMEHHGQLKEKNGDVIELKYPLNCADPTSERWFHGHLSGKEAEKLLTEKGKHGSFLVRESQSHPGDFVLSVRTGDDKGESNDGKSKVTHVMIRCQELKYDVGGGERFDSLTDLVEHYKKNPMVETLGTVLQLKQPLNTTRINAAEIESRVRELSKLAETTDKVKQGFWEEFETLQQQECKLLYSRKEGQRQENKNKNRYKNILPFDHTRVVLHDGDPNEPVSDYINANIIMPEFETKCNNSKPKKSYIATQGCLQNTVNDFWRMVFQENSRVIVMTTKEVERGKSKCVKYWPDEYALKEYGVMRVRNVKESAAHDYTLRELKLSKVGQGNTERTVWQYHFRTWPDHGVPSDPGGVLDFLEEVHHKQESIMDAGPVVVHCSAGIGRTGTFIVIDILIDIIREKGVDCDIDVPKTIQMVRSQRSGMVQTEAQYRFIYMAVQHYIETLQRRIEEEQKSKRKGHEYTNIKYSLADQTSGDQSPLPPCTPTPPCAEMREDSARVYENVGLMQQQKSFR

T2 sequence (P29350 whole entry): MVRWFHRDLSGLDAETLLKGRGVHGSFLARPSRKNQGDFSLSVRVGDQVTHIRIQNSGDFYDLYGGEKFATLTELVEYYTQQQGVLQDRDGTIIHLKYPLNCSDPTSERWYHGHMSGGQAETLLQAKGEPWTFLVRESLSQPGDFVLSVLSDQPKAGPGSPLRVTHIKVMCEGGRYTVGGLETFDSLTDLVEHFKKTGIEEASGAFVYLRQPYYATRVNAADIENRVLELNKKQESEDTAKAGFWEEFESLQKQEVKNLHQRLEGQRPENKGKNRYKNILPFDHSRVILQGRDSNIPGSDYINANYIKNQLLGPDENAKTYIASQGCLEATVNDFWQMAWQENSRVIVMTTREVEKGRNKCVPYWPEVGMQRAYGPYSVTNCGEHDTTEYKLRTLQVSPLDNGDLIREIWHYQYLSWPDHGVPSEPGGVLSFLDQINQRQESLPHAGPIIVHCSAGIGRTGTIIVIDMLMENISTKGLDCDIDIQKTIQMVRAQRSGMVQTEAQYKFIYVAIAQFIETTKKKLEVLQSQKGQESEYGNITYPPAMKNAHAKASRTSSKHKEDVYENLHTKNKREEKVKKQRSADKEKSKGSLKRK

| Structure (SMILES) | inhibition of phosphatase activity of recombinant SHP-1 [1] | induction of IFNγ+ cells [2] [fold] | inhibition of B16 melanoma cells in culture [3] | increase of CD3+ IFNγ+ cells [4] [fold] | increase of CD3- IFNγ+ cells [4] [fold] | B16 tumor growth inhibition versus control ([5]; 1 mg/kg/daily, M-F/wk, oral, day 22) [%] | tolerance of treated tumor mice (behavior, gross anatomy) ([5]; mouse, in vivo) | level at which SHP-1 is inhibited ([1]; recombinant and intracellular SHP-1) [µg/mL] | pLck-pY394 induction ([6]; 10 μg/ml, 10 min) [fold] | dose effective in inducing pLck-pY394 (lowest / only effective dose) ([6]; 10 min treatment) [μg/ml] | level active against intracellular SHP-1 ([6]; Jurkat T cells, molar equivalent) [µM] | pLck-pY394 induction ([6]; lower (1 μg/ml) or higher (100 μg/ml) doses) | level at which SHP-2 is inhibited [7] [µg/mL] |
| --- | --- | --- | --- | --- | --- | --- | --- | --- | --- | --- | --- | --- | --- |
| O=C1C=CC(=O)C(c2cccc(Cl)c2)=C1 [L5a2] | completely or almost completely inhibited | ~20 | failed to inhibit | ~4.5 | 1.3 | ~75 | no apparent abnormality | – | – | – | – | – | – |
| O=C1C=C(c2ccccc2)C(=O)c2ccccc21 [L5a3] | ~80% | – | – | – | – | – | – | – | – | – | – | – | – |
| O.O.O.O.O.O.O.O.O.O=C([O-])[C@@H]1[O][Sb]2([O-])([O][Sb]34([OH])[O][C@H]([C@H](O)CO)[C@H]([O]3)[C@H](C(=O)[O-])[O]4)[O][C@H]([C@H](O)CO)[C@@H]1[O]2.[Na+].[Na+].[Na+] [SSG, Sodium Stibogluconate, reference compound] | – | – | – | – | – | – | – | 10 | ~2 | 10 | ~14 | failed | 10 |
